From PubChem BioAssay (NCI)
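These data come from cells grown in 96-well plates and exposed to compound for 48 hours at five concentrations. The concentration for full growth arrest is given as TGI.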

Tests used:
Assay in all cases: growth of human tumour cells (NCI), 48 h
PC-3 prostate = test system: PC-3 prostate
SK-MEL-2 melanoma = test system: SK-MEL-2 melanoma
SN12C renal = test system: SN12C renal
OVCAR-8 ovarian = test system: OVCAR-8 ovarian
MOLT-4 leukemia = test system: MOLT-4 leukemia
SNB-75 CNS = test system: SNB-75 CNS
BT-549 breast = test system: BT-549 breast
NCI-H23 lung = test system: NCI-H23 lung
UACC-62 melanoma = test system: UACC-62 melanoma
LOX IMVI melanoma = test system: LOX IMVI melanoma
A498 renal = test system: A498 renal
CCRF-CEM leukemia = test system: CCRF-CEM leukemia
NCI-H460 lung = test system: NCI-H460 lung
DU-145 prostate = test system: DU-145 prostate
NCI-H226 lung = test system: NCI-H226 lung
SK-OV-3 ovarian = test system: SK-OV-3 ovarian
HCT-15 colon = test system: HCT-15 colon
HCT-116 colon = test system: HCT-116 colon
NCI-H522 lung = test system: NCI-H522 lung
OVCAR-5 ovarian = test system: OVCAR-5 ovarian
HL-60(TB) leukemia = test system: HL-60(TB) leukemia
MALME-3M melanoma = test system: MALME-3M melanoma
COLO 205 colon = test system: COLO 205 colon
SNB-19 CNS = test system: SNB-19 CNS
UO-31 renal = test system: UO-31 renal
U251 CNS = test system: U251 CNS
MDA-MB-231 breast = test system: MDA-MB-231 breast
HCC-2998 colon = test system: HCC-2998 colon
ACHN renal = test system: ACHN renal
MDA-N = test system: MDA-N
NCI/ADR-RES ovarian = test system: NCI/ADR-RES ovarian
SR leukemia = test system: SR leukemia
RPMI-8226 leukemia = test system: RPMI-8226 leukemia
SK-MEL-28 melanoma = test system: SK-MEL-28 melanoma
A549 NSCLC = test system: A549 NSCLC
HT29 colon = test system: HT29 colon
HOP-62 NSCLC = test system: HOP-62 NSCLC
OVCAR-4 ovarian = test system: OVCAR-4 ovarian
K-562 leukemia = test system: K-562 leukemia
UACC-257 melanoma = test system: UACC-257 melanoma
KM12 colon = test system: KM12 colon
HOP-92 NSCLC = test system: HOP-92 NSCLC
SF-295 CNS = test system: SF-295 CNS
CAKI-1 renal = test system: CAKI-1 renal
MDA-MB-435 = test system: MDA-MB-435
SK-MEL-5 melanoma = test system: SK-MEL-5 melanoma
IGROV1 ovarian = test system: IGROV1 ovarian
MCF7 breast = test system: MCF7 breast
EKVX NSCLC = test system: EKVX NSCLC
SW-620 colon = test system: SW-620 colon
M14 melanoma = test system: M14 melanoma
OVCAR-3 ovarian = test system: OVCAR-3 ovarian
786-0 renal = test system: 786-0 renal
SF-539 CNS = test system: SF-539 CNS
RXF 393 renal = test system: RXF 393 renal
T-47D breast = test system: T-47D breast
TK-10 renal = test system: TK-10 renal
HS 578T breast = test system: HS 578T breast
SF-268 CNS = test system: SF-268 CNS

What does the source list for O=C1SS(=O)c2ccccc21 (stereo not drawn)?
TGI (PC-3 prostate): > 100 µM; TGI (SK-MEL-2 melanoma): > 100 µM; TGI (SN12C renal): > 100 µM; TGI (OVCAR-8 ovarian): > 100 µM; TGI (MOLT-4 leukemia): > 100 µM; TGI (SNB-75 CNS): > 100 µM; TGI (BT-549 breast): > 100 µM; TGI (NCI-H23 lung): > 100 µM; TGI (UACC-62 melanoma): > 100 µM; TGI (LOX IMVI melanoma): > 100 µM; TGI (A498 renal): > 100 µM; TGI (CCRF-CEM leukemia): > 100 µM; TGI (NCI-H460 lung): > 100 µM; TGI (DU-145 prostate): > 100 µM; TGI (NCI-H226 lung): > 100 µM; TGI (SK-OV-3 ovarian): > 100 µM; TGI (HCT-15 colon): > 100 µM; TGI (HCT-116 colon): > 100 µM; TGI (NCI-H522 lung): > 100 µM; TGI (OVCAR-5 ovarian): > 100 µM; TGI (HL-60(TB) leukemia): > 100 µM; TGI (MALME-3M melanoma): > 100 µM; TGI (COLO 205 colon): > 100 µM; TGI (SNB-19 CNS): > 100 µM; TGI (UO-31 renal): > 100 µM; TGI (U251 CNS): > 100 µM; TGI (MDA-MB-231 breast): > 100 µM; TGI (HCC-2998 colon): > 100 µM; TGI (ACHN renal): > 100 µM; TGI (MDA-N): > 100 µM; TGI (NCI/ADR-RES ovarian): > 100 µM; TGI (SR leukemia): > 100 µM; TGI (RPMI-8226 leukemia): > 100 µM; TGI (SK-MEL-28 melanoma): > 100 µM; TGI (A549 NSCLC): > 100 µM; TGI (HT29 colon): > 100 µM; TGI (HOP-62 NSCLC): > 100 µM; TGI (OVCAR-4 ovarian): > 100 µM; TGI (K-562 leukemia): > 100 µM; TGI (UACC-257 melanoma): > 100 µM; TGI (KM12 colon): > 100 µM; TGI (HOP-92 NSCLC): > 100 µM; TGI (SF-295 CNS): > 100 µM; TGI (CAKI-1 renal): > 100 µM; TGI (MDA-MB-435): > 100 µM; TGI (SK-MEL-5 melanoma): > 100 µM; TGI (IGROV1 ovarian): > 100 µM; TGI (MCF7 breast): > 100 µM; TGI (EKVX NSCLC): > 100 µM; TGI (SW-620 colon): > 100 µM; TGI (M14 melanoma): > 100 µM; TGI (OVCAR-3 ovarian): > 100 µM; TGI (786-0 renal): > 100 µM; TGI (SF-539 CNS): > 100 µM

Which results are given for COc1cc(C)c(/C=C/C(=O)N2C(=O)OC[C@@H]2c2ccccc2)c(C)c1?
TGI (PC-3 prostate): > 100 µM; TGI (SK-MEL-2 melanoma): > 100 µM; TGI (SN12C renal): > 100 µM; TGI (RXF 393 renal): > 100 µM; TGI (OVCAR-8 ovarian): > 100 µM; TGI (MOLT-4 leukemia): 85.8 µM; TGI (SNB-75 CNS): > 100 µM; TGI (T-47D breast): 74.1 µM; TGI (NCI-H23 lung): > 100 µM; TGI (LOX IMVI melanoma): > 100 µM; TGI (A498 renal): > 100 µM; TGI (CCRF-CEM leukemia): > 100 µM; TGI (DU-145 prostate): > 100 µM; TGI (NCI-H226 lung): > 100 µM; TGI (SK-OV-3 ovarian): > 100 µM; TGI (HCT-15 colon): > 100 µM; TGI (HCT-116 colon): > 100 µM; TGI (NCI-H522 lung): > 100 µM; TGI (OVCAR-5 ovarian): > 100 µM; TGI (HL-60(TB) leukemia): > 100 µM; TGI (MALME-3M melanoma): > 100 µM; TGI (COLO 205 colon): > 100 µM; TGI (SNB-19 CNS): > 100 µM; TGI (UO-31 renal): > 100 µM; TGI (U251 CNS): > 100 µM; TGI (MDA-MB-231 breast): > 100 µM; TGI (HCC-2998 colon): > 100 µM; TGI (ACHN renal): > 100 µM; TGI (MDA-N): > 100 µM; TGI (NCI/ADR-RES ovarian): > 100 µM; TGI (TK-10 renal): > 100 µM; TGI (RPMI-8226 leukemia): > 100 µM; TGI (SK-MEL-28 melanoma): > 100 µM; TGI (A549 NSCLC): > 100 µM; TGI (HT29 colon): 63.2 µM; TGI (HS 578T breast): > 100 µM; TGI (HOP-62 NSCLC): > 100 µM; TGI (OVCAR-4 ovarian): > 100 µM; TGI (K-562 leukemia): > 100 µM; TGI (UACC-257 melanoma): > 100 µM; TGI (KM12 colon): > 100 µM; TGI (HOP-92 NSCLC): > 100 µM; TGI (SF-295 CNS): > 100 µM; TGI (CAKI-1 renal): > 100 µM; TGI (MDA-MB-435): > 100 µM; TGI (SK-MEL-5 melanoma): > 100 µM; TGI (IGROV1 ovarian): > 100 µM; TGI (EKVX NSCLC): > 100 µM; TGI (SW-620 colon): > 100 µM; TGI (M14 melanoma): > 100 µM; TGI (OVCAR-3 ovarian): > 100 µM; TGI (786-0 renal): > 100 µM; TGI (SF-268 CNS): > 100 µM; TGI (SF-539 CNS): > 100 µM
